Measurements taken from PubChem BioAssay AID1845212 (Molecular Pharmacology Branch, DTP, NCI, 2023).

What follows are compounds tested on NCI-H719 tumor spheroids, viability (assay: Anticancer human tumor NCI-H719 cell line growth inhibition). Settings: second compound 1 µM; first compound 0.949 µM; active compounds read low; spheroids with HUVEC and MSC.
In short: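 Complex spheroids of malignant cells with endothelial cells and mesenchymal stem cells; agents alone or combined, from near clinical Cmax (or 10 microM if unknown) down in half-log steps, 0.25% DMSO final.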
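Note: spheroids exposed to compounds for seven days; percent viability relative to DMSO vehicle control as 100%.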

Row | Structure (SMILES) | viability, T/C
1 | Cc1sc2c(c1C)C(c1ccc(Cl)cc1)=NC(CC(=O)Nc1ccc(O)cc1)c1nnc(C)n1-2 (stereo not given) + Cn1nnc2c(C(N)=O)ncn2c1=O | 4.49%
2 | Cn1ncnc1[C@H]1c2n[nH]c(=O)c3cc(F)cc(c23)N[C@@H]1c1ccc(F)cc1 + Cn1nnc2c(C(N)=O)ncn2c1=O | 6.65%
3 | O=C(c1cc(Cc2n[nH]c(=O)c3ccccc23)ccc1F)N1CCN(C(=O)C2CC2)CC1 + Cn1nnc2c(C(N)=O)ncn2c1=O | 56.1%

Same assay, conditions: second compound 1 µM; first compound 3 µM; active compounds read low; spheroids with HUVEC and MSC

Row | Structure (SMILES) | viability, T/C
4 | CNCc1ccc(-c2cc(-c3nc(-c4ccc(S(=O)(=O)C(C)C)cc4)cnc3N)on2)cc1 + Cn1nnc2c(C(N)=O)ncn2c1=O | 0.15%
5 | Cc1sc2c(c1C)C(c1ccc(Cl)cc1)=NC(CC(=O)Nc1ccc(O)cc1)c1nnc(C)n1-2 (stereo not given) + Cn1nnc2c(C(N)=O)ncn2c1=O | 3.76%
6 | Cn1ncnc1[C@H]1c2n[nH]c(=O)c3cc(F)cc(c23)N[C@@H]1c1ccc(F)cc1 + Cn1nnc2c(C(N)=O)ncn2c1=O | 7.52%
7 | O=C(c1cc(Cc2n[nH]c(=O)c3ccccc23)ccc1F)N1CCN(C(=O)C2CC2)CC1 + Cn1nnc2c(C(N)=O)ncn2c1=O | 42.1%

Same assay, conditions: second compound 1 µM; first compound 9.49 µM; active compounds read low; spheroids with HUVEC and MSC

Row | Structure (SMILES) | viability, T/C
8 | O=C(c1cc(Cc2n[nH]c(=O)c3ccccc23)ccc1F)N1CCN(C(=O)C2CC2)CC1 + Cn1nnc2c(C(N)=O)ncn2c1=O | 7.25%

Same assay, conditions: second compound 1 µM; first compound 30 µM; active compounds read low; spheroids with HUVEC and MSC

Row | Structure (SMILES) | viability, T/C
9 | O=C(c1cc(Cc2n[nH]c(=O)c3ccccc23)ccc1F)N1CCN(C(=O)C2CC2)CC1 + Cn1nnc2c(C(N)=O)ncn2c1=O | 6.89%

Same assay, conditions: second compound 3.16 µM; first compound 0.00949 µM; active compounds read low; spheroids with HUVEC and MSC

Row | Structure (SMILES) | viability, T/C
10 | CNCc1ccc(-c2cc(-c3nc(-c4ccc(S(=O)(=O)C(C)C)cc4)cnc3N)on2)cc1 + Cn1nnc2c(C(N)=O)ncn2c1=O | 97.6%
11 | Cc1sc2c(c1C)C(c1ccc(Cl)cc1)=NC(CC(=O)Nc1ccc(O)cc1)c1nnc(C)n1-2 (stereo not given) + Cn1nnc2c(C(N)=O)ncn2c1=O | 95.2%
12 | Cn1ncnc1[C@H]1c2n[nH]c(=O)c3cc(F)cc(c23)N[C@@H]1c1ccc(F)cc1 + Cn1nnc2c(C(N)=O)ncn2c1=O | 14.8%

Same assay, conditions: second compound 3.16 µM; first compound 0.03 µM; active compounds read low; spheroids with HUVEC and MSC

Row | Structure (SMILES) | viability, T/C
13 | CNCc1ccc(-c2cc(-c3nc(-c4ccc(S(=O)(=O)C(C)C)cc4)cnc3N)on2)cc1 + Cn1nnc2c(C(N)=O)ncn2c1=O | 94.2%
14 | Cc1sc2c(c1C)C(c1ccc(Cl)cc1)=NC(CC(=O)Nc1ccc(O)cc1)c1nnc(C)n1-2 (stereo not given) + Cn1nnc2c(C(N)=O)ncn2c1=O | 98.7%
15 | Cn1ncnc1[C@H]1c2n[nH]c(=O)c3cc(F)cc(c23)N[C@@H]1c1ccc(F)cc1 + Cn1nnc2c(C(N)=O)ncn2c1=O | 7.76%

Same assay, conditions: second compound 3.16 µM; first compound 0.0949 µM; active compounds read low; spheroids with HUVEC and MSC

Row | Structure (SMILES) | viability, T/C
16 | CNCc1ccc(-c2cc(-c3nc(-c4ccc(S(=O)(=O)C(C)C)cc4)cnc3N)on2)cc1 + Cn1nnc2c(C(N)=O)ncn2c1=O | 46.7%
17 | Cc1sc2c(c1C)C(c1ccc(Cl)cc1)=NC(CC(=O)Nc1ccc(O)cc1)c1nnc(C)n1-2 (stereo not given) + Cn1nnc2c(C(N)=O)ncn2c1=O | 65.9%
18 | Cn1ncnc1[C@H]1c2n[nH]c(=O)c3cc(F)cc(c23)N[C@@H]1c1ccc(F)cc1 + Cn1nnc2c(C(N)=O)ncn2c1=O | 7.04%
19 | O=C(c1cc(Cc2n[nH]c(=O)c3ccccc23)ccc1F)N1CCN(C(=O)C2CC2)CC1 + Cn1nnc2c(C(N)=O)ncn2c1=O | 64.2%

Same assay, conditions: second compound 3.16 µM; first compound 0.3 µM; active compounds read low; spheroids with HUVEC and MSC

Row | Structure (SMILES) | viability, T/C
20 | CNCc1ccc(-c2cc(-c3nc(-c4ccc(S(=O)(=O)C(C)C)cc4)cnc3N)on2)cc1 + Cn1nnc2c(C(N)=O)ncn2c1=O | 18.9%
21 | Cc1sc2c(c1C)C(c1ccc(Cl)cc1)=NC(CC(=O)Nc1ccc(O)cc1)c1nnc(C)n1-2 (stereo not given) + Cn1nnc2c(C(N)=O)ncn2c1=O | 15.6%
22 | Cn1ncnc1[C@H]1c2n[nH]c(=O)c3cc(F)cc(c23)N[C@@H]1c1ccc(F)cc1 + Cn1nnc2c(C(N)=O)ncn2c1=O | 7.11%
23 | O=C(c1cc(Cc2n[nH]c(=O)c3ccccc23)ccc1F)N1CCN(C(=O)C2CC2)CC1 + Cn1nnc2c(C(N)=O)ncn2c1=O | 60.5%

Same assay, conditions: second compound 3.16 µM; first compound 0.949 µM; active compounds read low; spheroids with HUVEC and MSC

Row | Structure (SMILES) | viability, T/C
24 | CNCc1ccc(-c2cc(-c3nc(-c4ccc(S(=O)(=O)C(C)C)cc4)cnc3N)on2)cc1 + Cn1nnc2c(C(N)=O)ncn2c1=O | 9.22%
25 | Cc1sc2c(c1C)C(c1ccc(Cl)cc1)=NC(CC(=O)Nc1ccc(O)cc1)c1nnc(C)n1-2 (stereo not given) + Cn1nnc2c(C(N)=O)ncn2c1=O | 4.84%
26 | Cn1ncnc1[C@H]1c2n[nH]c(=O)c3cc(F)cc(c23)N[C@@H]1c1ccc(F)cc1 + Cn1nnc2c(C(N)=O)ncn2c1=O | 7.41%
27 | O=C(c1cc(Cc2n[nH]c(=O)c3ccccc23)ccc1F)N1CCN(C(=O)C2CC2)CC1 + Cn1nnc2c(C(N)=O)ncn2c1=O | 67%

Same assay, conditions: second compound 3.16 µM; first compound 3 µM; active compounds read low; spheroids with HUVEC and MSC

Row | Structure (SMILES) | viability, T/C
28 | CNCc1ccc(-c2cc(-c3nc(-c4ccc(S(=O)(=O)C(C)C)cc4)cnc3N)on2)cc1 + Cn1nnc2c(C(N)=O)ncn2c1=O | 0.14%
29 | Cc1sc2c(c1C)C(c1ccc(Cl)cc1)=NC(CC(=O)Nc1ccc(O)cc1)c1nnc(C)n1-2 (stereo not given) + Cn1nnc2c(C(N)=O)ncn2c1=O | 3.28%
30 | Cn1ncnc1[C@H]1c2n[nH]c(=O)c3cc(F)cc(c23)N[C@@H]1c1ccc(F)cc1 + Cn1nnc2c(C(N)=O)ncn2c1=O | 8.3%
31 | O=C(c1cc(Cc2n[nH]c(=O)c3ccccc23)ccc1F)N1CCN(C(=O)C2CC2)CC1 + Cn1nnc2c(C(N)=O)ncn2c1=O | 19.5%

Same assay, conditions: second compound 3.16 µM; first compound 9.49 µM; active compounds read low; spheroids with HUVEC and MSC

Row | Structure (SMILES) | viability, T/C
32 | O=C(c1cc(Cc2n[nH]c(=O)c3ccccc23)ccc1F)N1CCN(C(=O)C2CC2)CC1 + Cn1nnc2c(C(N)=O)ncn2c1=O | 20.2%

Same assay, conditions: second compound 3.16 µM; first compound 30 µM; active compounds read low; spheroids with HUVEC and MSC

Row | Structure (SMILES) | viability, T/C
33 | O=C(c1cc(Cc2n[nH]c(=O)c3ccccc23)ccc1F)N1CCN(C(=O)C2CC2)CC1 + Cn1nnc2c(C(N)=O)ncn2c1=O | 7.9%

Same assay, conditions: second compound 10 µM; first compound 0.00949 µM; active compounds read low; spheroids with HUVEC and MSC

Row | Structure (SMILES) | viability, T/C
34 | CNCc1ccc(-c2cc(-c3nc(-c4ccc(S(=O)(=O)C(C)C)cc4)cnc3N)on2)cc1 + Cn1nnc2c(C(N)=O)ncn2c1=O | 101%
35 | Cc1sc2c(c1C)C(c1ccc(Cl)cc1)=NC(CC(=O)Nc1ccc(O)cc1)c1nnc(C)n1-2 (stereo not given) + Cn1nnc2c(C(N)=O)ncn2c1=O | 96.5%
